From patent US20150231093A1, “METHODS AND COMPOSITIONS FOR COUNTERMEASURES AGAINST RADIATION” (THE UNIVERSITY OF CHICAGO, priority 2014, published 2015)

How the values were obtained:
[1] = Tolerability of the i.p. doses used in mice
Procedure: For in vivo studies, mice were injected i.p. with a final volume of 0.2 ml for all single and drug combinations used. […] Captopril was injected at a final concentration of 200 mg/kg body weight, MESNA was injected at a final concentration of 300 mg/kg body weight, and NAC was injected at a concentration of 400 mg/kg body weight.

[2] = test system: mouse embryo fibroblasts (MEF); experiment: In vitro cell survival (colony) assay after 4 Gy, MEF; type: cell-based; settings: 4 mM, 30 min prior to 4 Gy
Excerpt: (§1) In Vitro Cell Survival Assay. […] Unirradiated cells served as controls. Immediately following irradiation, cells were counted, diluted, and known numbers seeded into 100-mm tissue culture dishes to allow the development of 50 to 150 colonies per dish. Colonies were stained with 20% crystal violet and scored 12 days after plating.

[3] = test system: human microvascular endothelial cells (HMEC); experiment: In vitro cell survival (colony) assay after 4 Gy, HMEC; type: cell-based; settings: 4 mM, 30 min prior to 4 Gy
Excerpt: as §1

[4] = test system: SA-NH murine sarcoma cells; experiment: In vitro cell survival (colony) assay after 4 Gy, SA-NH cells; type: cell-based; settings: 4 mM, 30 min prior to 4 Gy
Excerpt: as §1

mouse splenocytes = settings: i.p. 24 h following 7 Gy; amifostine 400 mg/kg, metformin 250 mg/kg
[5] = 250 mg/kg i.p. 24 h following 7 Gy, counted 13 days after irradiation

C[C@H](CS)C(=O)N1CCC[C@H]1C(=O)O [Captopril, captopril]
toxicity of dose used ([1]; 200 mg/kg body weight): non-toxic

NCCCNCCS [WR1065, 2-[(aminopropyl)amino] ethanethiol]
protection ratio [2]: 1.9 | protection ratio [3]: 1.8 | protection ratio [4]: 1.6

O=S(=O)([O-])CCS.[Na+] [MESNA, sodium 2-sulfanylethanesulfonate]
toxicity of dose used ([1]; 300 mg/kg body weight): non-toxic

CC(=O)N[C@@H](CS)C(=O)O [NAC, N-acetyl-cysteine]
toxicity of dose used ([1]; 400 mg/kg body weight): non-toxic

CN(C)C(=N)NC(=N)N.Cl [Metformin, 1,1-Dimethylbiguanide hydrochloride]
protection of irradiated animals (in words) (mouse splenocytes): significantly protected | average number of spleen nodules [5]: 18
